The values that follow come from PMC8857470, “Molecular insights into the maturation of phosphodiesterase 6 by the specialized chaperone complex of HSP90 with AIPL1” (The Journal of Biological Chemistry, 2022).

The assay addresses T1, AIPL1 (full-length mouse AIPL1) (Mus musculus, UniProt Q924K1).
T1 construct: full-length (aa 1-328), His6-tagged from pET15b, expressed in E. coli BL21(DE3), purified by Ni-NTA, Mono Q and SEC; prenyl site in the FKBP domain
T1 sequence (Q924K1 1-328): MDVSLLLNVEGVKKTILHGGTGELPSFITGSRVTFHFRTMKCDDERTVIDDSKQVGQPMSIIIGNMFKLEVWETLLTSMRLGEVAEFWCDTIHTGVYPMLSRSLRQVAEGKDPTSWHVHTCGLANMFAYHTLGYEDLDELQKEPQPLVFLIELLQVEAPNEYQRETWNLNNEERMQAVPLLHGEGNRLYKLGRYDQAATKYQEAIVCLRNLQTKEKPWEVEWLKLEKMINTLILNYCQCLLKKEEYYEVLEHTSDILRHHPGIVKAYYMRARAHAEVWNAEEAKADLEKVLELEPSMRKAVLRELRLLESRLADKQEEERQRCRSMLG
The assay can be described thus: fluorescence titration, ex […] nm, em […] nm, fit with ligand depletion. The assay is classed as binding.

One may read the Kd as a measure of binding affinity in units of concentration. Low readings indicate tighter binding, high ones weaker binding. Regarding `CC(C)=CCC/C(C)=C/CC/C(C)=C/CSC[C@H](NC(=O)CCCCCNC(=O)Cc1c(C)c2ccc(N)cc2oc1=O)C(=O)O` [farnesyl-Cys-AMCA], the affinity, expressed as Kd, was 700 ± 100 nM.
